Test results reported in patent publication US20170290774A1, “NEUROKININ-1 RECEPTOR ANTAGONIST COMPOSITION FOR TREATMENT OF DISEASES AND CONDITIONS OF THE RESPIRATORY TRACT” (PLUS VITECH, S.L., priority 2014, published 2017).

What was measured:
Assay type in all cases: in vivo, New Zealand albino rabbits
TGFβ2 = experiment: Immunohistochemistry of TGFβ2 in respiratory tract tissue of sodium hypochlorite aerosol-treated rabbits
From the text: (§1) It is known that the factors TGF-α, TGF-β 1, TGF-β 2, TGF-β 3, SPARC, MMP-3; MMP-7, MMP-9, MMP-11, MMP-13 and MMP-14, TGF-β, NF-kB, EGF, MMP-9, VEGF and TNF-α which are produced by lung cells (pneumocytes, fibroblasts and vascular endothelial cells) and inflammatory cells (macrophages, lymphocytes and polymorphonuclear leukocytes) are involved in the pathophysiology and development of said respiratory tract diseases. […] Herein, 27 New Zealand albino rabbits (New Zealand White Rabbit) with an initial average weight about 3 kg were used in this example. All subjects were administered an aerosol of a solution consisting of a mixture of water and sodium hypochlorite (35 g sodium hypochlorite per liter of water) at a rate of 5 mL of said solution by inhalation three times a day for 7 days (days 1 to 7 of experimentation). Subsequently, from days 3 to 7, a group of 3 rabbits (Group 1) was administered an oral dose of 10 mg/kg body weight per day, another group of 3 rabbits (Group 2) was administered an oral dose of 40 mg/kg body weight per day, a third group (Group 3) was administered an oral dose of 80 mg/kg body weight per day and a fourth group (Group 4) was administered an oral dose of 100 mg/kg body weight per day. […] This mixture was administered as an aerosol by inhalation, also from days 3 to 7, to a group of 3 rabbits (group 5) at a dose of 0.05 mg/kg body weight per day, to another group of three rabbits (Group 6) at a dose of 0.1 mg/kg body weight per day, to another group of three rabbits (Group 7) at a dose of 0.2 mg/kg body weight per day and to another group of three rabbits (Group 8) at a dose of 0.4 mg/kg body weight per day. A placebo consisting only of olive oil was administered from days 3 to 7 to a control group of 3 rabbits (placebo group). In parallel, 3 rabbits were kept under identical conditions but were not administered any treatment nor the aforementioned sodium hypochlorite solution (control group). […] On day 7 of the experiment all animals were euthanized and necropsied. […] Samples were taken at the peripheral level of the lung parenchyma, just below the pleural surface. Tissue samples were also taken from the nasal cavity, pharynx, larynx and bronchi. Immunohistochemistry studies were performed for all samples to evaluate the levels of the markers TGF-α, TGF-β 1, TGF-β 2, TGF-β 3 SPARC, MMP-3; MMP-7, MMP-9, MMP-11, MMP-14, TGF-β, TNF-α and VEGF. In said immunohistochemistry studies, a sample of each sample was dehydrated by treatment with increasing concentrations of ethanol and finally xylene. Subsequently said dried samples were embedded in paraffin, thus creating a block. Said paraffin blocks were cut on a microtome to a thickness of 5 μm, and the resulting sections (slices) were placed on slides suitable for conducting immunohistochemistry techniques. Subsequently, the sections were deparaffinised by immersion in xylene and then rehydrated through immersion in a series of solutions containing decreasing concentrations of ethanol and, finally, water. […] The samples were then allowed to cool to room temperature over 10 minutes. Endogenous peroxidase activity was blocked by treatment with 3% hydrogen peroxide over 30 min at room temperature. […] In order to verify the expression of NK1 receptors, the cell samples were incubated in the presence of anti-NK1 antibodies ([…], Sigma-Aldrich) diluted 1:1000 at 4° C. overnight. After this time they were washed in 0.05M Tris buffer at room temperature. Subsequently, Envision System-HRP (Dako) reagents were added for 30 min at room temperature. Once this time had expired, the samples were again washed with 0.05 M Tris buffer, and immunoreactivity was visualized by light microscopy with a chromogenic solution with 3,3'-diaminobenzidine (DAB+; Dako, USA). In order to differentiate the cell nuclei, these were lightly stained with haematoxylin. Samples that were not incubated with the primary antibody, but wherein this was replaced by a non-immune serum were used as negative controls. […]

TNF-α = experiment: Immunohistochemistry of TNF-α in respiratory tract tissue of sodium hypochlorite aerosol-treated rabbits
From the text: as §1

[1] = Tissue concentration of aprepitant by HPLC after oral or inhaled administration to rabbits; details: oral, 10 to 100 mg/kg per day
[2] = bronchial tissue, Group 1, oral 10 mg/kg per day
[3] = bronchial tissue, Group 2, oral 40 mg/kg per day
[4] = bronchial tissue, Group 3, oral 80 mg/kg per day
[5] = bronchial tissue, Group 4, oral 100 mg/kg per day
[6] = laryngeal tissue, Group 1, oral 10 mg/kg per day
[7] = laryngeal tissue, Group 2, oral 40 mg/kg per day
[8] = laryngeal tissue, Group 3, oral 80 mg/kg per day
[9] = laryngeal tissue, Group 4, oral 100 mg/kg per day
[10] = laryngeal tissue, Group 5, inhalation 0.05 mg/kg per day
[11] = laryngeal tissue, Group 6, inhalation 0.1 mg/kg per day
[12] = laryngeal tissue, Group 7, inhalation 0.2 mg/kg per day
[13] = laryngeal tissue, Group 8, inhalation 0.4 mg/kg per day
[14] = lung tissue, Group 1, oral 10 mg/kg per day
[15] = lung tissue, Group 2, oral 40 mg/kg per day
[16] = lung tissue, Group 3, oral 80 mg/kg per day
[17] = lung tissue, Group 4, oral 100 mg/kg per day
[18] = lung tissue, Group 5, inhalation 0.05 mg/kg per day
[19] = lung tissue, Group 6, inhalation 0.1 mg/kg per day
[20] = lung tissue, Group 7, inhalation 0.2 mg/kg per day
[21] = lung tissue, Group 8, inhalation 0.4 mg/kg per day
[22] = nasal cavity tissue, Group 1, oral 10 mg/kg per day
[23] = nasal cavity tissue, Group 2, oral 40 mg/kg per day
[24] = nasal cavity tissue, Group 3, oral 80 mg/kg per day
[25] = nasal cavity tissue, Group 4, oral 100 mg/kg per day
[26] = nasal cavity tissue, Group 5, inhalation 0.05 mg/kg per day
[27] = nasal cavity tissue, Group 6, inhalation 0.1 mg/kg per day
[28] = nasal cavity tissue, Group 7, inhalation 0.2 mg/kg per day
[29] = nasal cavity tissue, Group 8, inhalation 0.4 mg/kg per day
[30] = pharyngeal tissue, Group 1, oral 10 mg/kg per day
[31] = pharyngeal tissue, Group 2, oral 40 mg/kg per day
[32] = pharyngeal tissue, Group 3, oral 80 mg/kg per day
[33] = pharyngeal tissue, Group 4, oral 100 mg/kg per day
[34] = pharyngeal tissue, Group 5, inhalation 0.05 mg/kg per day
[35] = pharyngeal tissue, Group 6, inhalation 0.1 mg/kg per day
[36] = pharyngeal tissue, Group 7, inhalation 0.2 mg/kg per day
[37] = pharyngeal tissue, Group 8, inhalation 0.4 mg/kg per day

relationship between dose and concentration in lung tissue [1]: non-linear and not proportional
Compound: C[C@@H](OC1OCCN(Cc2nc(=O)[nH][nH]2)C1c1ccc(F)cc1)c1cc(C(F)(F)F)cc(C(F)(F)F)c1 (stereo in doubt) [Aprepitant, 5-([(2R,3S)-2-((R)-1-[3,5-bis(trifluoromethyl)phenyl]ethoxy)-3-(4-fluorophenyl)morpholino]methyl)-1H-1,2,4-triazol-3(2H)-one]
Percent increase in TGFβ2 with respect to the control group (TGFβ2; [2]): 1,342.12%
Percent increase in TGFβ2 with respect to the control group (TGFβ2; [3]): 1,008.32%
Percent increase in TGFβ2 with respect to the control group (TGFβ2; [4]): 878.34%
Percent increase in TGFβ2 with respect to the control group (TGFβ2; [5]): 457.45%
% Med G5/C: percent increase in marker TGFβ2 with respect to the control group (TGFβ2; bronchial tissue, Group 5): 1,209.34%
% Med G6/C: percent increase in marker TGFβ2 with respect to the control group (TGFβ2; bronchial tissue, Group 6): 878.45%
% Med G7/C: percent increase in marker TGFβ2 with respect to the control group (TGFβ2; bronchial tissue, Group 7): 328.45%
% Med G8/C: percent increase in marker TGFβ2 with respect to the control group (TGFβ2; bronchial tissue, Group 8): 126.45%
Percent increase in TGFβ2 with respect to the control group (TGFβ2; [6]): 1,789.56%
Percent increase in TGFβ2 with respect to the control group (TGFβ2; [7]): 1,398.89%
Percent increase in TGFβ2 with respect to the control group (TGFβ2; [8]): 989.89%
Percent increase in TGFβ2 with respect to the control group (TGFβ2; [9]): 816.89%
Percent increase in TGFβ2 with respect to the control group (TGFβ2; [10]): 1,506.89%
Percent increase in TGFβ2 with respect to the control group (TGFβ2; [11]): 996.89%
Percent increase in TGFβ2 with respect to the control group (TGFβ2; [12]): 560.38%
Percent increase in TGFβ2 with respect to the control group (TGFβ2; [13]): 120.23%
Percent increase in TGFβ2 with respect to the control group (TGFβ2; [14]): 775.23%
Percent increase in TGFβ2 with respect to the control group (TGFβ2; [15]): 582.05%
Percent increase in TGFβ2 with respect to the control group (TGFβ2; [16]): 475.25%
Percent increase in TGFβ2 with respect to the control group (TGFβ2; [17]): 438.55%
Percent increase in TGFβ2 with respect to the control group (TGFβ2; [18]): 797.78%
Percent increase in TGFβ2 with respect to the control group (TGFβ2; [19]): 338.44%
Percent increase in TGFβ2 with respect to the control group (TGFβ2; [20]): 198.92%
Percent increase in TGFβ2 with respect to the control group (TGFβ2; [21]): 125.88%
Percent increase in TGFβ2 with respect to the control group (TGFβ2; [22]): 1,838.85%
Percent increase in TGFβ2 with respect to the control group (TGFβ2; [23]): 1,469.70%
Percent increase in TGFβ2 with respect to the control group (TGFβ2; [24]): 1,290.84%
Percent increase in TGFβ2 with respect to the control group (TGFβ2; [25]): 1,151.85%
Percent increase in TGFβ2 with respect to the control group (TGFβ2; [26]): 1,451.21%
Percent increase in TGFβ2 with respect to the control group (TGFβ2; [27]): 825.63%
Percent increase in TGFβ2 with respect to the control group (TGFβ2; [28]): 252.52%
Percent increase in TGFβ2 with respect to the control group (TGFβ2; [29]): 136.09%
Percent increase in TGFβ2 with respect to the control group (TGFβ2; [30]): 1,575.67%
Percent increase in TGFβ2 with respect to the control group (TGFβ2; [31]): 1,235.45%
Percent increase in TGFβ2 with respect to the control group (TGFβ2; [32]): 980.65%
Percent increase in TGFβ2 with respect to the control group (TGFβ2; [33]): 780.54%
Percent increase in TGFβ2 with respect to the control group (TGFβ2; [34]): 1,202.46%
Percent increase in TGFβ2 with respect to the control group (TGFβ2; [35]): 725.63%
Percent increase in TGFβ2 with respect to the control group (TGFβ2; [36]): 252.52%
Percent increase in TGFβ2 with respect to the control group (TGFβ2; [37]): 136.09%
Percent increase in TNF-α with respect to the control group (TNF-α; [2]): 789.45%
Percent increase in TNF-α with respect to the control group (TNF-α; [3]): 580.67%
Percent increase in TNF-α with respect to the control group (TNF-α; [4]): 467.45%
Percent increase in TNF-α with respect to the control group (TNF-α; [5]): 356.34%
% Med G5/C: percent increase in marker TNF-α with respect to the control group (TNF-α; bronchial tissue, Group 5): 673.34%
% Med G6/C: percent increase in marker TNF-α with respect to the control group (TNF-α; bronchial tissue, Group 6): 451.23%
% Med G7/C: percent increase in marker TNF-α with respect to the control group (TNF-α; bronchial tissue, Group 7): 325.21%
% Med G8/C: percent increase in marker TNF-α with respect to the control group (TNF-α; bronchial tissue, Group 8): 201.23%
Percent increase in TNF-α with respect to the control group (TNF-α; [6]): 1,078.45%
Percent increase in TNF-α with respect to the control group (TNF-α; [7]): 809.99%
Percent increase in TNF-α with respect to the control group (TNF-α; [8]): 708.73%
Percent increase in TNF-α with respect to the control group (TNF-α; [9]): 509.87%
Percent increase in TNF-α with respect to the control group (TNF-α; [10]): 879.34%
Percent increase in TNF-α with respect to the control group (TNF-α; [11]): 456.34%
Percent increase in TNF-α with respect to the control group (TNF-α; [12]): 323.12%
Percent increase in TNF-α with respect to the control group (TNF-α; [13]): 150.34%
Percent increase in TNF-α with respect to the control group (TNF-α; [14]): 859.73%
Percent increase in TNF-α with respect to the control group (TNF-α; [15]): 685.01%
Percent increase in TNF-α with respect to the control group (TNF-α; [16]): 607.15%
Percent increase in TNF-α with respect to the control group (TNF-α; [17]): 463.11%
Percent increase in TNF-α with respect to the control group (TNF-α; [18]): 980.46%
Percent increase in TNF-α with respect to the control group (TNF-α; [19]): 470.69%
Percent increase in TNF-α with respect to the control group (TNF-α; [20]): 218.38%
Percent increase in TNF-α with respect to the control group (TNF-α; [21]): 151.28%
Percent increase in TNF-α with respect to the control group (TNF-α; [22]): 1,411.41%
Percent increase in TNF-α with respect to the control group (TNF-α; [23]): 842.93%
Percent increase in TNF-α with respect to the control group (TNF-α; [24]): 658.65%
Percent increase in TNF-α with respect to the control group (TNF-α; [25]): 418.29%
Percent increase in TNF-α with respect to the control group (TNF-α; [26]): 1,495.60%
Percent increase in TNF-α with respect to the control group (TNF-α; [27]): 736.83%
Percent increase in TNF-α with respect to the control group (TNF-α; [28]): 151.81%
Percent increase in TNF-α with respect to the control group (TNF-α; [29]): 122.23%
Percent increase in TNF-α with respect to the control group (TNF-α; [30]): 1,357.32%
Percent increase in TNF-α with respect to the control group (TNF-α; [31]): 987.63%
Percent increase in TNF-α with respect to the control group (TNF-α; [32]): 789.45%
Percent increase in TNF-α with respect to the control group (TNF-α; [33]): 418.29%
Percent increase in TNF-α with respect to the control group (TNF-α; [34]): 1,532.34%
Percent increase in TNF-α with respect to the control group (TNF-α; [35]): 989.36%
Percent increase in TNF-α with respect to the control group (TNF-α; [36]): 298.67%
Percent increase in TNF-α with respect to the control group (TNF-α; [37]): 167.34%
